Data reported in PubChem BioAssay (NCI).
Several values for one entry are separate records, joined by “and”; a condition that tells them apart may be missing. Equal entries are not always repeated.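 The compound was tested at five concentrations on cells cultured in 96-well plates, with a 48-hour exposure period. At the GI50, growth is halved. TGI marks complete inhibition of growth.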

What was measured:
Test in all cases: DTP human tumour cell line panel, 48 h
EKVX NSCLC = system: EKVX NSCLC
HT29 colon = system: HT29 colon
NCI-H460 lung = system: NCI-H460 lung
SR leukemia = system: SR leukemia
HL-60(TB) leukemia = system: HL-60(TB) leukemia
UACC-62 melanoma = system: UACC-62 melanoma
COLO 205 colon = system: COLO 205 colon
RXF 393 renal = system: RXF 393 renal
M14 melanoma = system: M14 melanoma
OVCAR-4 ovarian = system: OVCAR-4 ovarian

SMILES | GI50 (EKVX NSCLC) [µM] | TGI (EKVX NSCLC) [µM] | GI50 (HT29 colon) [µM] | TGI (HT29 colon) [µM] | GI50 (NCI-H460 lung) [µM] | TGI (NCI-H460 lung) [µM] | GI50 (SR leukemia) [µM] | TGI (SR leukemia) [µM] | GI50 (HL-60(TB) leukemia) [µM] | TGI (HL-60(TB) leukemia) [µM] | GI50 (UACC-62 melanoma) [µM] | TGI (UACC-62 melanoma) [µM] | GI50 (COLO 205 colon) [µM] | TGI (COLO 205 colon) [µM] | GI50 (RXF 393 renal) [µM] | TGI (RXF 393 renal) [µM] | GI50 (M14 melanoma) [µM] | TGI (M14 melanoma) [µM] | GI50 (OVCAR-4 ovarian) | TGI (OVCAR-4 ovarian) [µM]
COc1cc2cc(Oc3ccc(NC(=O)c4ccc(Cl)c(C(F)(F)F)c4)cc3)c(C)nc2cc1OC | 5.76 | 83.3 | 10.3 | > 100 | 11.5 | > 100 | 14.3 | > 100 | 20.8 | 82 | 18.2 | > 100 | 11.2 | 24 | 9.04 | > 100 | 9.55 | > 100 | 5.58 µM | > 100
CC(=O)NC(CCCN(Cc1ccccc1)C(=O)N(CCCl)N=O)C(=O)NCc1ccccc1 (stereo unspecified) |  | > 100 |  | > 100 |  | > 79.6 |  | > 88.8 |  | 57.1 |  | > 100 |  | > 100 |  | 68.9 |  | > 100 |  | > 100
O=C(Cc1ccccc1)N/N=C(\C1=Nc2ccc([N+](=O)[O-])cc2NC1O)C(O)c1ccc([N+](=O)[O-])cc1 (stereo unspecified) |  | > 100 |  | > 100 |  | > 100 |  | > 100 |  | > 100 |  | > 100 |  | > 100 |  | > 100 |  | > 100 |  | 
CN(C)c1ccc(N=Nc2c([O-])ccc3ccccc23)cc1.[C-]#[O+].[C-]#[O+].[Ir] | 20.6 | 64.1 | 28.5 | > 73.1 | > 100 | > 100 | 17.9 | 57.7 | 10.6 | > 46.6 | 21.5 | 55.6 | 16.5 | 31.6 | 18.3 | 32.9 | 21.9 | 46.6 | 25.4 µM | 47.8
O=C(NN1C(=O)CSC1c1ccc(Cl)cc1)c1[nH]c2ccc(F)cc2c1-c1ccccc1 (stereo unspecified) | 6.23 | 24.8 | 3.09 | 10.5 | 2.81 | 7.84 | 2.27 | 6.27 | 2.75 | 7.71 | 5.38 | 17.3 | 2.2 | 4.81 | 3.42 | 15.4 | 2.5 | 6.45 | 6.3 µM | 24
O=C(Nc1ccc2c(c1)oc(=O)c1ccccc12)C(Cl)Cl |  | > 100 |  | 97.8 |  | 92.5 |  | > 100 |  | 25.5 |  | > 100 |  | > 100 |  | > 100 |  | > 100 |  | 
COC(=O)C(=O)C(C(=O)C=C(C)C)C(=O)C(=O)Nc1cccc(C(C)=O)c1 (stereo unspecified) |  | > 100 |  | > 100 |  | > 100 |  | > 100 |  | > 100 |  | > 100 |  | > 100 |  | > 100 |  | > 100 |  | > 100
Cc1ncc([N+](=O)[O-])n1CCNC(=O)CCCn1cnc([N+](=O)[O-])n1 |  | > 31.6 |  | > 100 |  | > 100 |  | > 100 |  | > 100 |  | > 100 |  | > 100 |  | > 100 |  | > 100 |  | > 100
C/C(=N\NC(N)=O)C(CN(C)C)C(c1ccccc1)c1c(O)c2ccccc2oc1=O (stereo unspecified) |  | > 100 |  | > 100 |  | > 100 |  | > 100 |  | > 100 |  | > 100 |  | > 100 |  | > 100 |  | > 100 |  | > 100
FC(F)(F)C12C34C=CC5(CCC6(C=CC1(CC3)O6)C52C(F)(F)F)O4 (stereo unspecified) |  | > 100 |  | > 100 |  | > 100 |  | > 100 |  | > 100 |  |  |  | > 100 |  | > 100 |  |  |  | > 100
CCc1c2c(nc3cccc(N)c13)-c1cc3c(c(=O)n1C2)COC(=O)[C@]3(O)CC | 0.187 | > 100 |  | 0.655 | 0.002 |  | < 0.001 |  | 0.00127 | 0.0182 | < 0.001 |  | 0.328 |  | 0.0636 |  | 0.00202 | 2.97 | 0.104 µM and 0.0238 µM | > 100
CS(=O)(=O)Nc1cc(-c2ccc3ncnc(Nc4ccc5c(cnn5Cc5ccc(F)cc5)c4)c3c2)cnc1Cl | 2.21 | 18.4 | 1.92 | 12.9 | 2.8 | 13.3 | 1.71 | 6.73 | 0.435 | 2.75 | 0.607 | 2.98 | 1.96 | 6.02 | 0.38 | 2.26 | 2.33 | 17 | 3.09 µM | 44
Fc1ccc(Nc2nccc(-c3c(-c4ccc(C(F)(F)F)cc4)nn4ncccc34)n2)cc1F | > 25 | > 25 | > 25 | > 25 | > 25 | > 25 | > 25 | > 25 | > 25 | > 25 | > 25 | > 25 | > 25 | > 25 | > 25 | > 25 | > 25 | > 25 | > 25 µM | > 25
Nc1nc(OCc2ccccc2)nc2[nH]ncc12 | 38.6 | > 100 | 28.6 | 77.6 | 24 | 88.8 | 5.59 | 30.5 |  |  | 14.4 | 32.1 | 18.5 | 40.4 |  |  | 36.6 | > 100 | 17.5 µM | 63.4
O=[N+]([O-])c1ccc(CS(=O)Cc2ccccc2)cc1 (stereo unspecified) |  | > 100 |  | > 100 |  | > 100 |  | > 100 |  | > 100 |  | > 100 |  | > 100 |  | > 100 |  | > 100 |  | > 100
